In this test the target is T1, EBP (Homo sapiens, UniProt Q15125).
T1 construct: HEK293T cells were utilized as the source of EBP enzyme; endogenous in cells; host or cells: HEK293T
Description: EBP Functional Assay (EBP immunoaffinity LC-MS assay). Format: biochemical. The following applies: HEK293T cells as source of EBP enzyme; substrate zymosterol-d5, 37° C. for 4 h; percent conversion to dehydrolathosterol-d5 by LC-APCI MRM MS. The protocol: The EBP immunoaffinity (IA) LC-MS assay measures the potency of small molecule inhibitors of EBP by quantifying their concentration-dependent changes in the enzyme's substrate and product using liquid chromatography atmospheric pressure chemical ionization multiple reaction monitoring mass spectrometry (LC-APCI MRM MS). HEK293T cells were utilized as the source of EBP enzyme. The enzyme was incubated with the small molecule inhibitors at variable concentrations for 30 min. Deuterated form of EBP substrate, zymosterol-d5 (Avanti Polar Lipids, Cat #700068P-1 mg), was then added and the plate was incubated at 37° C. for 4 h. Finally, the sterol isomers were extracted and injected to LC-APCI MRM MS. MRM transition used for the quantification for both zymosterol and […] (substrate and product of EBP enzymatic reaction, respectively) is 372.3-203.2, CE 30 and DP 80 in positive ion mode. Percent conversion of the zymosterol-d5 to dehydrolathosterol-d5 was used to derive IC50 curves. Tasin-1 (1′-[(4-Methoxyphenyl)sulfonyl]-4-methyl-1,4′-bipiperidine, CAS 792927-06-1) was used as the reference small molecule inhibitor.
Percent conversion versus the compound concentration data were fit to the following 4-parameter logistic model to generate IC50 curves: […]

SMILES strings stand for the structures.

T1 sequence (Q15125 whole entry): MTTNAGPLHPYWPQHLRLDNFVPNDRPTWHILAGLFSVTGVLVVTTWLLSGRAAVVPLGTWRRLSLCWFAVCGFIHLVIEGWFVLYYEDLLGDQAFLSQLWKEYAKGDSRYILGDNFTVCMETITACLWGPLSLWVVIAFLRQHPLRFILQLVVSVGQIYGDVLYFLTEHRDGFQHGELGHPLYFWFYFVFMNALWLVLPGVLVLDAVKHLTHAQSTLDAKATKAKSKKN

The molecule `Cc1cc(S(=O)(=O)N2CCC3(CC2)CC(N2CC4(COC4)C2)C3)n(C)n1` [Example 92, 6-(7-((1,3-dimethyl-1H-pyrazol-5-yl)sulfonyl)-7-azaspiro[3.5]nonan-2-yl)-2-oxa-6-azaspiro[3.3]heptane] yielded an IC50 of 0.1 to 0.25 µM.
In turn, `COc1ncc(C)cc1S(=O)(=O)N1CCC2(CC1)CC(N1CC3(COC3)C1)C2` [Example 93, 6-(7-((2-methoxy-5-methylpyridin-3-yl)sulfonyl)-7-azaspiro[3.5]nonan-2-yl)-2-oxa-6-azaspiro[3.3]heptane] returned an IC50 of 0.1 to 0.25 µM.
Consider `Cc1nc(Cl)ccc1S(=O)(=O)N1CCC2(CC1)CC(N1C[C@H]3C[C@@H]1CO3)C2` [Example 94, (1R,4R)-5-(7-((6-chloro-2-methylpyridin-3-yl)sulfonyl)-7-azaspiro[3.5]nonan-2-yl)-2-oxa-5-azabicyclo[2.2.1]heptane], for which the IC50 is less than 0.1 µM.
With `Cc1nc(C(F)(F)F)ccc1S(=O)(=O)N1CCC2(CC1)CC(N1CC(O)C1)C2` [Example 95, 1-(7-((2-methyl-6-(trifluoromethyl)pyridin-3-yl)sulfonyl)-7-azaspiro[3.5]nonan-2-yl)azetidin-3-ol], the IC50 is less than 0.1 µM.
In turn, `N#Cc1cc(F)cc(S(=O)(=O)N2CCC3(CC2)CC(N2CC4(COC4)C2)C3)c1` [Example 96, 3-((2-(2-oxa-6-azaspiro[3.3]heptan-6-yl)-7-azaspiro[3.5]nonan-7-yl)sulfonyl)-5-fluorobenzonitrile] displayed a 50% inhibitory concentration (IC50) of 0.25 to 1.5 µM.
The same measure for `N#Cc1cc(F)cc(S(=O)(=O)N2CCC3(CCC(N4C[C@H]5C[C@@H]4CO5)C3)CC2)c1` (stereo partly drawn) [Example 97, 3-((2-((1R,4R)-2-oxa-5-azabicyclo[2.2.1]heptan-5-yl)-8-azaspiro[4.5]decan-8-yl)sulfonyl)-5-fluorobenzonitrile]: 0.1 to 0.25 µM; for `N#Cc1cc(F)cc(S(=O)(=O)N2CCC3(CC2)CC(NCC2CCOCC2)CO3)c1` (stereo not shown) [Example 98, 3-fluoro-5-((3-(((tetrahydro-2H-pyran-4-yl)methyl)amino)-1-oxa-8-azaspiro[4.5]decan-8-yl)sulfonyl)benzonitrile]: 0.25 to 1.5 µM.
The same measure for `COc1ccc(S(=O)(=O)N2CCC3(CCC(N4CC(O)C4)C3)CC2)c(C)n1` (stereo not shown) [Example 99, 1-(8-((6-methoxy-2-methylpyridin-3-yl)sulfonyl)-8-azaspiro[4.5]decan-2-yl)azetidin-3-ol]: less than 0.1 µM; for `COCCN(C)C1CCC2(CCN(S(=O)(=O)c3ccc(OC)nc3C)CC2)C1` (stereo not shown) [Example 100, 8-((6-methoxy-2-methylpyridin-3-yl)sulfonyl)-N-(2-methoxyethyl)-N-methyl-8-azaspiro[4.5]decan-2-amine]: less than 0.1 µM; for `O=S(=O)(c1coc(C(F)(F)F)c1)N1CCC2(CCC(N3CC4(COC4)C3)C2)CC1` (stereo not shown) [Example 101, 6-(8-((5-(trifluoromethyl)furan-3-yl)sulfonyl)-8-azaspiro[4.5]decan-2-yl)-2-oxa-6-azaspiro[3.3]heptane]: less than 0.1 µM.
Molecule `O=S(=O)(c1cc2cccnc2cc1F)N1CCC2(CCC(N3CC4(COC4)C3)C2)CC1` (stereo not shown) [Example 102, 6-(8-((7-fluoroquinolin-6-yl)sulfonyl)-8-azaspiro[4.5]decan-2-yl)-2-oxa-6-azaspiro[3.3]heptane] yielded an IC50 of 0.1 to 0.25 µM.
The same measure for `O=S(=O)(c1cnc2ccccc2c1)N1CCC2(CCC(N3CC4(COC4)C3)C2)CC1` (stereo not shown) [Example 103]: less than 0.1 µM; for `N#Cc1cccc(S(=O)(=O)N2CCC3(CCC(N4CC5(COC5)C4)C3)CC2)c1F` (stereo not shown) [Example 104]: less than 0.1 µM; for `Cc1occc1S(=O)(=O)N1CCC2(CCC(N3CC4(COC4)C3)C2)CC1` (stereo not shown) [Example 105]: 0.25 to 1.5 µM.
The same measure for `COc1ncc(S(=O)(=O)N2CCC3(CCC(N4CC5(COC5)C4)C3)CC2)cc1Cl` (stereo not shown) [Example 106]: less than 0.1 µM; for `O=S(=O)(c1ccc2c(c1)OCCO2)N1CCC2(CCC(N3CC4(COC4)C3)C2)CC1` (stereo not shown) [Example 107]: less than 0.1 µM; for `CCOc1ccc(S(=O)(=O)N2CCC3(CCC(N4CC5(COC5)C4)C3)CC2)cc1` (stereo not shown) [Example 108]: 0.25 to 1.5 µM.
Molecule `Cc1cc(S(=O)(=O)N2CCC3(CCC(N4CC5(COC5)C4)C3)CC2)cnc1C` (stereo not shown) [Example 109] had an IC50 of 0.1 to 0.25 µM.
Consider `COc1ccc(S(=O)(=O)N2CCC3(CCC(N4CC5(COC5)C4)C3)CC2)cn1` (stereo not shown) [Example 110], for which the IC50 lay in the range of 0.1 to 0.25 µM.
In turn, `CCn1ncc(S(=O)(=O)N2CCC3(CCC(N4CC5(COC5)C4)C3)CC2)n1` (stereo not shown) [Example 111] gave an IC50 of 0.25 to 1.5 µM.
With `COc1cc(S(=O)(=O)N2CCC3(CCC(N4CC5(COC5)C4)C3)CC2)ccn1` (stereo not shown) [Example 112], the IC50 is less than 0.1 µM.
As for `COc1cc(S(=O)(=O)N2CCC3(CCC(N4CC5(COC5)C4)C3)CC2)c(F)cn1` (stereo not shown) [Example 113], the IC50 is less than 0.1 µM.
Molecule `O=S(=O)(c1ccc(OC(F)(F)F)cn1)N1CCC2(CCC(N3CC4(COC4)C3)C2)CC1` (stereo not shown) [Example 114] had an IC50 of 0.25 to 1.5 µM.
In turn, `COc1cc(S(=O)(=O)N2CCC3(CC2)CC(N2CC4(COC4)C2)CO3)c(F)cn1` (stereo not shown) [Example 115] came in with an IC50 of 0.25 to 1.5 µM.
As for `COCCNC1COC2(CCN(S(=O)(=O)c3ccc(C)cc3C)CC2)C1` (stereo not shown) [Example 116, 8-((2,4-dimethylphenyl)sulfonyl)-N-(2-methoxyethyl)-1-oxa-8-azaspiro[4.5]decan-3-amine], the IC50 is 0.25 to 1.5 µM.
`COc1ncc(C)cc1S(=O)(=O)N1CCC2(CC1)CC(N1CC3(COC3)C1)CO2` (stereo not shown) [Example 117, 8-((2-methoxy-5-methylpyridin-3-yl)sulfonyl)-3-(2-oxa-6-azaspiro[3.3]heptan-6-yl)-1-oxa-8-azaspiro[4.5]decane] registered an IC50 of 0.25 to 1.5 µM.
In the case of `Cn1nc(C2CC2)cc1S(=O)(=O)N1CCC2(CC1)CC(NC1CCOCC1)C2` [Example 120, 7-((3-cyclopropyl-1-methyl-1H-pyrazol-5-yl)sulfonyl)-N-(tetrahydro-2H-pyran-4-yl)-7-azaspiro[3.5]nonan-2-amine] it was less than 0.1 µM; in that of `Cc1nc(OC(F)F)ccc1S(=O)(=O)N1CCC2(CC1)CC(N1CC3(COC3)C1)C2` [Example 121, 6-(7-((6-(difluoromethoxy)-2-methylpyridin-3-yl)sulfonyl)-7-azaspiro[3.5]nonan-2-yl)-2-oxa-6-azaspiro[3.3]heptane], less than 0.1 µM; in that of `Cn1nc(C(F)F)cc1S(=O)(=O)N1CCC2(CC1)CC(N1CC3(COC3)C1)C2` [Example 122, 6-(7-((3-(difluoromethyl)-1-methyl-1H-pyrazol-5-yl)sulfonyl)-7-azaspiro[3.5]nonan-2-yl)-2-oxa-6-azaspiro[3.3]heptane], less than 0.1 µM.
For the molecule `O=S(=O)(c1cc(C(F)F)nn1C1CC1)N1CCC2(CC1)CC(N1CC3(COC3)C1)C2` [Example 123, 6-(7-((1-cyclopropyl-3-(difluoromethyl)-1H-pyrazol-5-yl)sulfonyl)-7-azaspiro[3.5]nonan-2-yl)-2-oxa-6-azaspiro[3.3]heptane], the IC50 is less than 0.1 µM.
The molecule `COc1cc(S(=O)(=O)N2CCC3(CCC(N4CC5(COC5)C4)C3)CC2)n(C)n1` (stereo not shown) [Example 124, 6-(8-((3-methoxy-1-methyl-1H-pyrazol-5-yl)sulfonyl)-8-azaspiro[4.5]decan-2-yl)-2-oxa-6-azaspiro[3.3]heptane] came in with an IC50 of less than 0.1 µM.

(Values after patent US20250152574A1 (BIOGEN MA INC., priority 2022, published 2025).)
